Measurements from patent publication US10597388B2, “Pyridazinone herbicides” (FMC CORPORATION, priority 2014, dated 2020).

Tests used:
Format in all cases: in vivo
[1] = system: blackgrass (Alopecurus myosuroides); test: Test A greenhouse herbicide test, postemergence
Summary of the method: (§1)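 Plants grown in loam soil/sand blend pots were treated postemergence at 2 to 10 cm height, one- to two-leaf stage, with formulated test chemicals. After approximately 10 d in a greenhouse, injury was rated visually against untreated controls on a 0 to 100 scale (0 no effect, 100 complete control).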

[2] = system: galium (catchweed bedstraw, Galium aparine); test: Test A greenhouse herbicide test, postemergence
Summary of the method: as §1

[3] = system: foxtail, giant (giant foxtail, Setaria faberii); test: Test A greenhouse herbicide test, pre- and postemergence
Summary of the method: (§2)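 Seeds sown in loam–sand blend got a preemergence directed soil spray of compound in non-phytotoxic solvent with surfactant. Postemergence treatment was given at 2–10 cm, one- to two-leaf stage. After ~10 d in greenhouse, injury was rated visually vs untreated controls, 0 (no effect) to 100 (complete control).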

[4] = system: wheat (Triticum aestivum); test: as above; conditions: Postemergence
Summary of the method: as §2

[5] = system: ryegrass, Italian (Italian ryegrass, Lolium multiflorum); test: as above
Summary of the method: as §2

kochia (Kochia scoparia) = test: as above
Summary of the method: as §2

corn (Zea mays) = test: as above; conditions: Postemergence
Summary of the method: as §2

[6] = system: ragweed (common ragweed, Ambrosia elatior); test: as above
Summary of the method: as §2

[7] = system: ryegrass, Italian (Italian ryegrass, Lolium multiflorum); test: Test C greenhouse herbicide test, pre- and postemergence
Summary of the method: (§3)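 Preemergence: seeds sown in a loam soil–sand blend and sprayed with test chemicals in a non-phytotoxic solvent mixture containing surfactant. Postemergence: plants grown in peat-based medium and treated at 2 to 18 cm (1- to 4-leaf stage). After 13 to 15 d in a greenhouse, injury was visually rated 0–100 against controls.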

[8] = system: galium (catchweed bedstraw, Galium aparine); test: as above
Summary of the method: as §3

[9] = system: ragweed (common ragweed, Ambrosia elatior); test: as above
Summary of the method: as §3

soybean (Glycine max) = test: as above
Summary of the method: as §3

[10] = 125 g ai/ha, 0 to 100 scale where 0 is no effect and 100 is complete control
[11] = 500 g ai/ha, 0 to 100 scale, 0 is no effect, 100 is complete control
[12] = Postemergence, 125 g ai/ha, 0 to 100 scale where 0 is no effect and 100 is complete control
[13] = Postemergence, 500 g ai/ha, 0 to 100 scale, 0 is no effect, 100 is complete control
[14] = Preemergence, 125 g ai/ha, 0 to 100 scale where 0 is no effect and 100 is complete control
[15] = Preemergence, 500 g ai/ha, 0 to 100 scale where 0 is no effect and 100 is complete control
[16] = Postemergence, 31 g ai/ha, 0 to 100 scale (0 no effect, 100 complete control)
[17] = Postemergence, 125 g ai/ha, scale 0 to 100, 0 is no effect, 100 is complete control
[18] = Postemergence, 250 g ai/ha, scale 0 to 100, 0 no effect, 100 complete control, 13 to 15 d
[19] = Preemergence, 31 g ai/ha, scale 0 to 100, 0 is no effect, 100 is complete control
[20] = Preemergence, 62 g ai/ha, scale 0 to 100, 0 is no effect, 100 is complete control
[21] = Preemergence, 125 g ai/ha, scale 0 to 100, 0 is no effect, 100 is complete control
[22] = Preemergence, 250 g ai/ha, scale 0 to 100 (0 no effect, 100 complete control)
[23] = postemergence, 62 g ai/ha, scale 0 to 100, 0 no effect, 100 complete control

## CCOC(=O)Oc1c(C)nn(C)c(=O)c1-c1c(C)ccc2ccccc12 [Compound 73]
[1]; [10]
  Plant response rating, Blackgrass: 90
[1]; [11]
  Blackgrass plant response rating: 90
[2]; [10]
  Plant response rating, Galium: 100
[2]; [11]
  Galium plant response rating: 100
[3]; [12]
  Plant response rating, Foxtail, Giant: 90
[3]; [13]
  Foxtail, Giant plant response rating: 100
[3]; [14]
  Foxtail, Giant plant response rating: 90
[3]; [15]
  Plant response rating, Foxtail, Giant: 100
[4]; [10]
  Plant response rating, Wheat: 40
[4]; [11]
  Wheat plant response rating: 90
[5]; [12]
  Plant response rating, Ryegrass, Italian: 100
[5]; [13]
  Ryegrass, Italian plant response rating: 100
[5]; [14]
  Ryegrass, Italian plant response rating: 100
[5]; [15]
  Plant response rating, Ryegrass, Italian: 100
Kochia (Kochia scoparia); [12]
  Plant response rating, Kochia: 90
Kochia (Kochia scoparia); [13]
  Kochia plant response rating: 100
Kochia (Kochia scoparia); [14]
  Kochia plant response rating: 50
Kochia (Kochia scoparia); [15]
  Plant response rating, Kochia: 100
Corn (Zea mays); [10]
  Plant response rating, Corn: 20
Corn (Zea mays); [11]
  Corn plant response rating: 60
[6]; [12]
  Plant response rating, Ragweed: 90
[6]; [13]
  Ragweed plant response rating: 100
[6]; [14]
  Ragweed plant response rating: 90
[6]; [15]
  Plant response rating, Ragweed: 90
[7]; [16]
  Ryegrass, Italian plant response rating: 85
[7]; [17]
  Plant response rating, Ryegrass, Italian: 90
[7]; [18]
  Plant response rating, Ryegrass, Italian: 90
[7]; [19]
  Plant response rating, Ryegrass, Italian: 75
[7]; [20]
  Plant response rating, Ryegrass, Italian: 90
[7]; [21]
  Plant response rating, Ryegrass, Italian: 90
[7]; [22]
  Ryegrass, Italian plant response rating: 90
[7]; [23]
  Ryegrass, Italian plant response rating: 90
[8]; [16]
  Galium plant response rating: 90
[8]; [17]
  Plant response rating, Galium: 95
[8]; [18]
  Plant response rating, Galium: 95
[8]; [19]
  Plant response rating, Galium: 90
[8]; [20]
  Plant response rating, Galium: 98
[8]; [21]
  Plant response rating, Galium: 95
[8]; [22]
  Galium plant response rating: 98
[8]; [23]
  Galium plant response rating: 90
[9]; [16]
  Ragweed plant response rating: 85
[9]; [17]
  Plant response rating, Ragweed: 90
[9]; [18]
  Plant response rating, Ragweed: 90
[9]; [19]
  Plant response rating, Ragweed: 85
[9]; [20]
  Plant response rating, Ragweed: 95
[9]; [21]
  Plant response rating, Ragweed: 95
[9]; [22]
  Ragweed plant response rating: 98
[9]; [23]
  Ragweed plant response rating: 90
Soybean (Glycine max); [16]
  Soybean plant response rating: 0
Soybean (Glycine max); [17]
  Plant response rating, Soybean: 25
Soybean (Glycine max); [18]
  Plant response rating, Soybean: 45
Soybean (Glycine max); [19]
  Plant response rating, Soybean: 0
Soybean (Glycine max); [20]
  Plant response rating, Soybean: 0
Soybean (Glycine max); [21]
  Plant response rating, Soybean: 0
Soybean (Glycine max); [22]
  Soybean plant response rating: 0
Soybean (Glycine max); [23]
  Soybean plant response rating: 15
